Patent US9963456B2, “Pyrrolopyrimidine compound or salt thereof and compositions containing the pyrrolopyrimidine compound or salt thereof” (TAIHO PHARMACEUTICAL CO., LTD., priority 2014, dated 2018)

Biological target: NAE (heterodimer of APPBP1 and UBA3) (Homo sapiens (Human), UniProt Q8TBC4)
Test: Nedd8 conjugation inhibitory activity (AlphaScreen assay)
Type: biochemical
Conditions: purified NAE, GST-UBC12, Biotin-Nedd8, ATP

Chain of NAE (heterodimer of APPBP1 and UBA3) (Q8TBC4 whole entry): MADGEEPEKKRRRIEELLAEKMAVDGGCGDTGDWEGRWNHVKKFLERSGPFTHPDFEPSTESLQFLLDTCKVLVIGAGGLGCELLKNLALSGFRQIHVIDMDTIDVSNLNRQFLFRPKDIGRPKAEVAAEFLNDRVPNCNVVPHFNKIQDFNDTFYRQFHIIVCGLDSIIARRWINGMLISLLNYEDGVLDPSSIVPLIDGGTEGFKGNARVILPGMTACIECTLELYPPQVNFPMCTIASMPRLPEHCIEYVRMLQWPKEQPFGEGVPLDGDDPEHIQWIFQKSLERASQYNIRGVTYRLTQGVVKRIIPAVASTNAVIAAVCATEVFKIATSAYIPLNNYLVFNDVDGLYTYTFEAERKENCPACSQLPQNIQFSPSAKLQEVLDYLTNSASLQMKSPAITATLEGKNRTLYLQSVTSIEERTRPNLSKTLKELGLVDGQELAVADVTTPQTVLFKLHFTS
Chain of NAE (heterodimer of APPBP1 and UBA3) (Q13564 whole entry partner): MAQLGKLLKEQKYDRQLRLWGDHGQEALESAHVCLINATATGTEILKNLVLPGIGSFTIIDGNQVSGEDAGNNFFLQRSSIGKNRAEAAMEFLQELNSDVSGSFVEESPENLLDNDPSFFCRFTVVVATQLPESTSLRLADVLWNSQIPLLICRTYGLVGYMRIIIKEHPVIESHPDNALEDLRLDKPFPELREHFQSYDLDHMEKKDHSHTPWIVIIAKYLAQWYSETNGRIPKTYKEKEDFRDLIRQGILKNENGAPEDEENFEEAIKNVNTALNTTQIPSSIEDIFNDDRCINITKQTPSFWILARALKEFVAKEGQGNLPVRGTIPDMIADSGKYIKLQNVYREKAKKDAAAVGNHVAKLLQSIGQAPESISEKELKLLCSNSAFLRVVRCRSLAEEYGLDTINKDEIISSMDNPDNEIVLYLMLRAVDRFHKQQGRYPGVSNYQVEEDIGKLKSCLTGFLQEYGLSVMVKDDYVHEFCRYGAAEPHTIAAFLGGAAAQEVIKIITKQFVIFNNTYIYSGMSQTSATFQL

SMILES | IC50 [µM]
Nc1ncnc2c1c(C#Cc1ccnc3ccccc13)cn2[C@@H]1O[C@H](CNS(N)(=O)=O)[C@@H](O)[C@H]1O [Example 8, 4-[2-[4-Amino-7-[(2R,3R,4S,5R)-3,4-dihydroxy-5-[(sulfamoylamino)methyl]tetrahydrofuran-2-yl]pyrrolo[2,3-d]pyrimidin-5-yl]ethynyl]quinoline] | 0.029
Nc1ncnc2c1c(C#Cc1nccc3ccccc13)cn2[C@@H]1O[C@H](CNS(N)(=O)=O)[C@@H](O)[C@H]1O [Example 11, 1-[2-[4-Amino-7-[(2R,3R,4S,5R)-3,4-dihydroxy-5-[(sulfamoylamino)methyl]tetrahydrofuran-2-yl]pyrrolo[2,3-d]pyrimidin-5-yl]ethynyl]isoquinoline] | 0.0078
COc1cccc(OC)c1C#Cc1cn([C@@H]2O[C@H](CNS(N)(=O)=O)[C@@H](O)[C@H]2O)c2ncnc(N)c12 [Example 16, 4-Amino-7-[(2R,3R,4S,5R)-3,4-dihydroxy-5-[(sulfamoylamino)methyl]tetrahydrofuran-2-yl]-5-[2-(2,6-dimethoxyphenyl)ethynyl]pyrrolo[2,3-d]pyrimidine] | 0.0096
Nc1ncnc2c1c(C#Cc1cccc3cccnc13)cn2[C@@H]1O[C@H](CNS(N)(=O)=O)[C@@H](O)[C@H]1O [Example 17, 8-[2-[4-Amino-7-[(2R,3R,4S,5R)-3,4-dihydroxy-5-[(sulfamoylamino)methyl]tetrahydrofuran-2-yl]pyrrolo[2,3-d]pyrimidin-5-yl]ethynyl]quinoline] | 0.0054
Nc1ncnc2c1c(C#Cc1ccccc1OC(F)F)cn2[C@@H]1O[C@H](CNS(N)(=O)=O)[C@@H](O)[C@H]1O [Example 18, 4-Amino-5-[2-[2-(difluoromethoxy)phenyl]ethynyl]-7-[(2R,3R,4S,5R)-3,4-dihydroxy-5-[(sulfamoylamino)methyl]tetrahydrofuran-2-yl]pyrrolo[2,3-d]pyrimidine] | 0.027
Nc1ncnc2c1c(C#Cc1ccc3[nH]ncc3n1)cn2[C@@H]1O[C@H](CNS(N)(=O)=O)[C@@H](O)[C@H]1O [Example 19, 4-Amino-7-[(2R,3R,4S,5R)-3,4-dihydroxy-5-[(sulfamoylamino)methyl]tetrahydrofuran-2-yl]-5-[2-(1H-pyrazolo[4,3-b]pyridin-5-yl)ethynyl]pyrrolo[2,3-d]pyrimidine] | 0.028
Nc1ccc(C#Cc2cn([C@@H]3O[C@H](CNS(N)(=O)=O)[C@@H](O)[C@H]3O)c3ncnc(N)c23)c(F)c1 [Example 20, 4-Amino-5-[2-(4-amino-2-fluoro-phenyl)ethynyl]-7-[(2R,3R,4S,5R)-3,4-dihydroxy-5-[(sulfamoylamino)methyl]tetrahydrofuran-2-yl]pyrrolo[2,3-d]pyrimidine] | 0.0091
Nc1ncnc2c1c(C#CC1CCc3ccccc31)cn2[C@@H]1O[C@H](CNS(N)(=O)=O)[C@@H](O)[C@H]1O (stereo partly drawn) [Example 21, 4-Amino-7-[(2R,3R,4S,5R)-3,4-dihydroxy-5-[(sulfamoylamino)methyl]tetrahydrofuran-2-yl]-5-(2-indan-1-ylethynyl)pyrrolo[2,3-d]pyrimidine] | 0.015
CCNc1cc(F)c(C#Cc2cn([C@@H]3O[C@H](CNS(N)(=O)=O)[C@@H](O)[C@H]3O)c3ncnc(N)c23)c(F)c1 [Example 26, 4-Amino-7-[(2R,3R,4S,5R)-3,4-dihydroxy-5-[(sulfamoylamino)methyl]tetrahydrofuran-2-yl]-5-[2-[4-(ethylamino)-2,6-difluoro-phenyl]ethynyl]pyrrolo[2,3-d]pyrimidine] | 0.012
Nc1ncnc2c1c(C#Cc1c(F)cc(N3CC[C@@H](O)C3)cc1F)cn2[C@@H]1O[C@H](CNS(N)(=O)=O)[C@@H](O)[C@H]1O [Example 30, 4-Amino-5-[2-[2,6-difluoro-4-[(3R)-3-hydroxypyrrolidin-1-yl]phenyl]ethynyl]-7-[(2R,3R,4S,5R)-3,4-dihydroxy-5-[(sulfamoylamino)methyl]tetrahydrofuran-2-yl]pyrrolo[2,3-d]pyrimidine] | 0.027
CCOc1cc(N2CCOCC2)cc(F)c1C#Cc1cn([C@@H]2O[C@H](CNS(N)(=O)=O)[C@@H](O)[C@H]2O)c2ncnc(N)c12 [Example 34, 4-[4-[2-[4-Amino-7-[(2R,3R,4S,5R)-3,4-dihydroxy-5-[(sulfamoylamino)methyl]tetrahydrofuran-2-yl]pyrrolo[2,3-d]pyrimidin-5-yl]ethynyl]-3-ethoxy-5-fluoro-phenyl]morpholine] | 0.024
CCOc1cc(F)cc(F)c1C#Cc1cn([C@@H]2O[C@H](CNS(N)(=O)=O)[C@@H](O)[C@H]2O)c2ncnc(N)c12 [Example 35, 4-Amino-7-[(2R,3R,4S,5R)-3,4-dihydroxy-5-[(sulfamoylamino)methyl]tetrahydrofuran-2-yl]-5-[2-(2-ethoxy-4,6-difluoro-phenyl)ethynyl]pyrrolo[2,3-d]pyrimidine] | 0.0041
Nc1ncnc2c1c(C#Cc1c(F)cc(N3CCSCC3)cc1F)cn2[C@@H]1O[C@H](CNS(N)(=O)=O)[C@@H](O)[C@H]1O [Example 37, 4-[4-[2-[4-Amino-7-[(2R,3R,4S,5R)-3,4-dihydroxy-5-[(sulfamoylamino)methyl]tetrahydrofuran-2-yl]pyrrolo[2,3-d]pyrimidin-5-yl]ethynyl]-3,5-difluoro-phenyl]thiomorpholine] | 0.011
Nc1ncnc2c1c(C#Cc1c(F)cc(N3CCCC(O)C3)cc1F)cn2[C@@H]1O[C@H](CNS(N)(=O)=O)[C@@H](O)[C@H]1O (stereo partly drawn) [Example 38, 4-Amino-5-[2-[2,6-difluoro-4-(3-hydroxy-1-piperidyl)phenyl]ethynyl]-7-[(2R,3R,4S,5R)-3,4-dihydroxy-5-[(sulfamoylamino)methyl]tetrahydrofuran-2-yl]pyrrolo[2,3-d]pyrimidine] | 0.0035
Nc1ncnc2c1c(C#Cc1c(F)cc(N3CCC(=O)CC3)cc1F)cn2[C@@H]1O[C@H](CNS(N)(=O)=O)[C@@H](O)[C@H]1O [Example 42, 4-Amino-5-[2-[2,6-difluoro-4-(4-oxo-1-piperidyl)phenyl]ethynyl]-7-[(2R,3R,4S,5R)-3,4-dihydroxy-5-[(sulfamoylamino)methyl]tetrahydrofuran-2-yl]pyrrolo[2,3-d]pyrimidine] | 0.0043
Nc1ncnc2c1c(C#Cc1ccccn1)cn2[C@@H]1O[C@H](CNS(N)(=O)=O)[C@@H](O)[C@H]1O [Example 44, 4-Amino-7-[(2R,3R,4S,5R)-3,4-dihydroxy-5-[(sulfamoylamino)methyl]tetrahydrofuran-2-yl]-5-[2-(2-pyridyl)ethynyl]pyrrolo[2,3-d]pyrimidine] | 0.029
N#Cc1ccccc1C#Cc1cn([C@@H]2O[C@H](CNS(N)(=O)=O)[C@@H](O)[C@H]2O)c2ncnc(N)c12 [Example 49, 4-Amino-5-[2-(2-cyanophenyl)ethynyl]-7-[(2R,3R,4S,5R)-3,4-dihydroxy-5-[(sulfamoylamino)methyl]tetrahydrofuran-2-yl]pyrrolo[2,3-d]pyrimidine] | 0.018
COc1cccc(F)c1C#Cc1cn([C@@H]2O[C@H](CNS(N)(=O)=O)[C@@H](O)[C@H]2O)c2ncnc(N)c12 [Example 51, 4-Amino-7-[(2R,3R,4S,5R)-3,4-dihydroxy-5-[(sulfamoylamino)methyl]tetrahydrofuran-2-yl]-5-[2-(2-fluoro-6-methoxy-phenyl)ethynyl]pyrrolo[2,3-d]pyrimidine] | 0.0035
Nc1ncnc2c1c(C#Cc1c(F)cc(O)cc1F)cn2[C@@H]1O[C@H](CNS(N)(=O)=O)[C@@H](O)[C@H]1O [Example 54, 4-Amino-5-[2-(2,6-difluoro-4-hydroxy-phenyl)ethynyl]-7-[(2R,3R,4S,5R)-3,4-dihydroxy-5-[(sulfamoylamino)methyl]tetrahydrofuran-2-yl]pyrrolo[2,3-d]pyrimidine] | 0.0045
CC(C)Oc1cccc(F)c1C#Cc1cn([C@@H]2O[C@H](CNS(N)(=O)=O)[C@@H](O)[C@H]2O)c2ncnc(N)c12 [Example 56, 4-Amino-7-[(2R,3R,4S,5R)-3,4-dihydroxy-5-[(sulfamoylamino)methyl]tetrahydrofuran-2-yl]-5-[2-(2-fluoro-6-isopropoxy-phenyl)ethynyl]pyrrolo[2,3-d]pyrimidine] | 0.0053
N#Cc1cc(F)c(C#Cc2cn([C@@H]3O[C@H](CNS(N)(=O)=O)[C@@H](O)[C@H]3O)c3ncnc(N)c23)c(F)c1 [Example 57, 4-Amino-5-[2-(4-cyano-2,6-difluoro-phenyl)ethynyl]-7-[(2R,3R,4S,5R)-3,4-dihydroxy-5-[(sulfamoylamino)methyl]tetrahydrofuran-2-yl]pyrrolo[2,3-d]pyrimidine] | 0.0058
CSc1cccc(F)c1C#Cc1cn([C@@H]2O[C@H](CNS(N)(=O)=O)[C@@H](O)[C@H]2O)c2ncnc(N)c12 [Example 59, 4-Amino-7-[(2R,3R,4S,5R)-3,4-dihydroxy-5-[(sulfamoylamino)methyl]tetrahydrofuran-2-yl]-5-[2-(2-fluoro-6-methylsulfanyl-phenyl)ethynyl]pyrrolo[2,3-d]pyrimidine] | 0.0085
Nc1ncnc2c1c(C#Cc1c(F)cccc1OCC(F)(F)F)cn2[C@@H]1O[C@H](CNS(N)(=O)=O)[C@@H](O)[C@H]1O [Example 61, 4-Amino-7-[(2R,3R,4S,5R)-3,4-dihydroxy-5-[(sulfamoylamino)methyl]tetrahydrofuran-2-yl]-5-[2-[2-fluoro-6-(2,2,2-trifluoroethoxy)phenyl]ethynyl]pyrrolo[2,3-d]pyrimidine] | 0.0038
CCOc1cccc(OC)c1C#Cc1cn([C@@H]2O[C@H](CNS(N)(=O)=O)[C@@H](O)[C@H]2O)c2ncnc(N)c12 [Example 62, 4-Amino-7-[(2R,3R,4S,5R)-3,4-dihydroxy-5-[(sulfamoylamino)methyl]tetrahydrofuran-2-yl]-5-[2-(2-ethoxy-6-methoxy-phenyl)ethynyl]pyrrolo[2,3-d]pyrimidine] | 0.016
COc1ccc2cccnc2c1C#Cc1cn([C@@H]2O[C@H](CNS(N)(=O)=O)[C@@H](O)[C@H]2O)c2ncnc(N)c12 [Example 63, 8-[2-[4-Amino-7-[(2R,3R,4S,5R)-3,4-dihydroxy-5-[(sulfamoylamino)methyl]tetrahydrofuran-2-yl]pyrrolo[2,3-d]pyrimidin-5-yl]ethynyl]-7-methoxyquinoline] | 0.011
